Like-named read-outs stand apart in the source and are kept apart here.
Tests used:
Format in all cases: cell-based, human
[1] = system: senescent IMR90 ER:RAS cells (4-OHT-induced); experiment: Nuclei count (Hoechst, high content imaging) senolytic assay, oncogene-induced senescence (OIS) model, senescent cells; settings: Homo sapiens; for viability at 10 µM: log (dose) [M] -5, 72 h; for viability at 2.188 µM: log (dose) [M] -5.66, 72 h; for viability at 1 µM: log (dose) [M] -6, 72 h
How it was run: (§1)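 Readout is automated image-based counting of Hoechst-stained nuclei per well, with loss of cells relative to untreated wells taken as cell death. Senescent (4-OHT, 100 nM) and control IMR90 ER:RAS cells were exposed to compounds for 72 h at 10 nM to 10 μM final.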

[2] = system: non-senescent control IMR90 ER:RAS cells; experiment: Nuclei count (Hoechst, high content imaging) senolytic assay, OIS model, non-senescent control cells; settings: Homo sapiens; for viability at 4.677 µM: log (dose) [M] -5.33, 72 h; for viability at 0.4677 µM: log (dose) [M] -6.33, 72 h; for viability at 4.68 µM: log (dose) [M] -5.33
How it was run: as §1

[3] = system: senescent A549 cells (etoposide-induced); experiment: Nuclei count senolytic assay, therapy-induced senescence (TIS) model, senescent cells; settings: Homo sapiens, A549, Senescent cells, mean, read-out: Mean % Cell Survival; for viability at 10 µM: log (dose) [M] -5; for viability at 4.68 µM: log (dose) [M] -5.33; for viability at 2.19 µM: log (dose) [M] -5.66; for viability at 1 µM: log (dose) [M] -6; for viability at 0.468 µM: log (dose) [M] -6.33; for viability at 0.219 µM: log (dose) [M] -6.66; for viability at 0.1 µM: log (dose) [M] -7; for viability at 0.0468 µM: log (dose) [M] -7.33; for viability at 0.0219 µM: log (dose) [M] -7.66; for viability at 0.01 µM: log (dose) [M] -8
How it was run: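 Read-out is the imaged count of Hoechst 33342-stained nuclei (2 μg/ml final) in fixed, permeabilised A549 cells. Senescent cells had received etoposide at 100 μM for 48 h plus three days recovery in normal media. Compound exposure lasted 72 h across a 10-point […] range, 10 μM to 10 nM.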

[4] = IMR-90, 72 h, Senescent, mean n=3 (Fig 3C), read-out: Mean % Cell Survival
[5] = IMR-90, 72 h, Senescent, log (dose) [M] -5.33, 72 h, mean n=3 (Fig 3C), read-out: Mean % Cell Survival
[6] = IMR-90, 72 h, Senescent, log (dose) [M] -6.33, 72 h, mean n=3 (Fig 3C), read-out: Mean % Cell Survival
[7] = IMR-90, 72 h, Senescent, log (dose) [M] -6.66, 72 h, mean n=3 (Fig 3C), read-out: Mean % Cell Survival
[8] = IMR-90, 72 h, Senescent, log (dose) [M] -7, 72 h, mean n=3 (Fig 3C), read-out: Mean % Cell Survival
[9] = IMR-90, 72 h, Senescent, log (dose) [M] -7.33, 72 h, mean n=3 (Fig 3C), read-out: Mean % Cell Survival
[10] = IMR-90, 72 h, Senescent, log (dose) [M] -7.66, 72 h, mean n=3 (Fig 3C), read-out: Mean % Cell Survival
[11] = IMR-90, 72 h, Senescent, log (dose) [M] -8, 72 h, mean n=3 (Fig 3C), read-out: Mean % Cell Survival
[12] = IMR-90, Senescent cells, log (dose) [M] -6.66, individual replicates, SUP FIG 4C, read-out: % Cell Survival
[13] = IMR-90, 72 h, Control, log (dose) [M] -5, 72 h, mean n=3 (Fig 3C), read-out: Mean % Cell Survival
[14] = IMR-90, 72 h, Control, mean n=3 (Fig 3C), read-out: Mean % Cell Survival
[15] = IMR-90, 72 h, Control, log (dose) [M] -5.66, 72 h, mean n=3 (Fig 3C), read-out: Mean % Cell Survival
[16] = IMR-90, 72 h, Control, log (dose) [M] -6, 72 h, mean n=3 (Fig 3C), read-out: Mean % Cell Survival
[17] = IMR-90, 72 h, Control, log (dose) [M] -6.66, 72 h, mean n=3 (Fig 3C), read-out: Mean % Cell Survival
[18] = IMR-90, 72 h, Control, log (dose) [M] -7, 72 h, mean n=3 (Fig 3C), read-out: Mean % Cell Survival
[19] = IMR-90, 72 h, Control, log (dose) [M] -7.33, 72 h, mean n=3 (Fig 3C), read-out: Mean % Cell Survival
[20] = IMR-90, 72 h, Control, log (dose) [M] -7.66, 72 h, mean n=3 (Fig 3C), read-out: Mean % Cell Survival
[21] = IMR-90, 72 h, Control, log (dose) [M] -8, 72 h, mean n=3 (Fig 3C), read-out: Mean % Cell Survival
[22] = IMR-90, Control, read-out: % Cell Survival
[23] = IMR-90, Control, log (dose) [M] -5.66, read-out: % Cell Survival
[24] = IMR-90, Control, log (dose) [M] -6, read-out: % Cell Survival
[25] = IMR-90, Control, log (dose) [M] -6.66, read-out: % Cell Survival
[26] = IMR-90, Control, log (dose) [M] -7, read-out: % Cell Survival
[27] = IMR-90, Control, log (dose) [M] -7.33, read-out: % Cell Survival
[28] = IMR-90, Control, log (dose) [M] -8, read-out: % Cell Survival

Molecule `Cc1cc2c(C(C)C)c(O)c(O)c(C=O)c2c(O)c1-c1c(C)cc2c(C(C)C)c(O)c(O)c(C=O)c2c1O` [Gossypol, gossypol] has a viability at 10 µM [1, 4] of 26.6%, a viability at 4.677 µM [1, 5] of 121% and a viability at 2.188 µM [1, 4] of 156%. It also gave a viability at 1 µM [1, 4] of 166%, a viability at 0.4677 µM [1, 6] of 168% and a viability at 0.2188 µM [1, 7] of 188%. For the same molecule, the viability at 0.1 µM [1, 8] was 130%, the viability at 0.04677 µM [1, 9] was 120% and the viability at 0.02188 µM [1, 10] was 145%. It also gave a viability at 0.01 µM [1, 11] of 116%, a viability at 0.2188 µM [1, 12] of 189% and a viability at 0.04677 µM ([1]; IMR-90, Senescent cells, log (dose) [M] -7.33, individual replicates, SUP FIG 4C, read-out: % Cell Survival) of 127%. The viability at 10 µM [2, 13] was 86.7%, the viability at 4.677 µM [2, 14] was 131% and the viability at 2.188 µM [2, 15] was 118%. For the same molecule, the viability at 1 µM [2, 16] was 120%, the viability at 0.4677 µM [2, 14] was 135% and the viability at 0.2188 µM [2, 17] was 146%. The viability at 0.1 µM [2, 18] was 126%, the viability at 0.04677 µM [2, 19] was 143% and the viability at 0.02188 µM [2, 20] was 121%. For the same molecule, the viability at 0.01 µM [2, 21] was 109%, the viability at 4.68 µM [2, 22] was 113% and the viability at 2.19 µM [2, 23] was 99.8%. For the same molecule, the viability at 1 µM [2, 24] was 101%, the viability at 0.219 µM [2, 25] was 94.1% and the viability at 0.1 µM [2, 26] was 94.9%. It also gave a viability at 0.04677 µM [2, 27] of 101%, a viability at 0.01 µM [2, 28] of 104% and a viability at 10 µM [3] of 110%. The viability at 4.68 µM [3] was 146%, the viability at 2.19 µM [3] was 166% and the viability at 1 µM [3] was 126%. The viability at 0.468 µM [3] was 74.4%, the viability at 0.219 µM [3] was 149% and the viability at 0.1 µM [3] was 112%. For the same molecule, the viability at 0.0468 µM [3] was 69.1%, the viability at 0.0219 µM [3] was 107% and the viability at 0.01 µM [3] was 117%.

Work on `Cc1c(-c2c(F)cc(C(N)=O)c3[nH]c4c(c23)CC[C@H](C(C)(C)O)C4)cccc1-n1c(=O)c2cccc(F)c2n(C)c1=O` [BMS 986142] yielded a viability at 10 µM [1, 4] of 97.6%, a viability at 4.677 µM [1, 5] of 143% and a viability at 2.188 µM [1, 4] of 96.7%. It also gave a viability at 1 µM [1, 4] of 102%, a viability at 0.4677 µM [1, 6] of 101% and a viability at 0.2188 µM [1, 7] of 100%. It also gave a viability at 0.1 µM [1, 8] of 98.6%, a viability at 0.04677 µM [1, 9] of 109% and a viability at 0.02188 µM [1, 10] of 95.3%. The viability at 0.01 µM [1, 11] was 97.5%, the viability at 4.677 µM ([1]; IMR-90, Senescent cells, log (dose) [M] -5.33, individual replicates, SUP FIG 4C, read-out: % Cell Survival) was 133% and the viability at 0.4677 µM ([1]; IMR-90, Senescent cells, log (dose) [M] -6.33, individual replicates, SUP FIG 4C, read-out: % Cell Survival) was 103%. For the same molecule, the viability at 0.2188 µM [1, 12] was 105%, the viability at 0.1 µM ([1]; IMR-90, Senescent cells, log (dose) [M] -7, individual replicates, SUP FIG 4C, read-out: % Cell Survival) was 91.6% and the viability at 0.02188 µM ([1]; IMR-90, Senescent cells, log (dose) [M] -7.66, individual replicates, SUP FIG 4C, read-out: % Cell Survival) was 94.3%. For the same molecule, the viability at 0.01 µM ([1]; IMR-90, Senescent cells, log (dose) [M] -8, individual replicates, SUP FIG 4C, read-out: % Cell Survival) was 90.3%, the viability at 0.01 µM ([1]; IMR-90, Senescent, log (dose) [M] -8, read-out: % Cell Survival) was 111% and the viability at 10 µM [2, 13] was 97.1%. For the same molecule, the viability at 4.677 µM [2, 14] was 136%, the viability at 2.188 µM [2, 15] was 117% and the viability at 1 µM [2, 16] was 115%. For the same molecule, the viability at 0.4677 µM [2, 14] was 97.6%, the viability at 0.2188 µM [2, 17] was 107% and the viability at 0.1 µM [2, 18] was 108%. The viability at 0.04677 µM [2, 19] was 105%, the viability at 0.02188 µM [2, 20] was 114% and the viability at 0.01 µM [2, 21] was 104%. The viability at 10 µM ([2]; IMR-90, Control cells, log (dose) [M] -5, individual replicates, SUP FIG 4C, read-out: % Cell Survival) was 104%, the viability at 2.188 µM ([2]; IMR-90, Control cells, log (dose) [M] -5.66, individual replicates, SUP FIG 4C, read-out: % Cell Survival) was 125% and the viability at 1 µM ([2]; IMR-90, Control cells, log (dose) [M] -6, individual replicates, SUP FIG 4C, read-out: % Cell Survival) was 119%. It also gave a viability at 0.2188 µM ([2]; IMR-90, Control cells, log (dose) [M] -6.66, individual replicates, SUP FIG 4C, read-out: % Cell Survival) of 108%, a viability at 0.1 µM ([2]; IMR-90, Control cells, log (dose) [M] -7, individual replicates, SUP FIG 4C, read-out: % Cell Survival) of 107% and a viability at 0.04677 µM ([2]; IMR-90, Control cells, log (dose) [M] -7.33, individual replicates, SUP FIG 4C, read-out: % Cell Survival) of 108%. It also gave a viability at 0.02188 µM ([2]; IMR-90, Control cells, log (dose) [M] -7.66, individual replicates, SUP FIG 4C, read-out: % Cell Survival) of 116%, a viability at 0.01 µM ([2]; IMR-90, Control cells, log (dose) [M] -8, individual replicates, SUP FIG 4C, read-out: % Cell Survival) of 104% and a viability at 4.68 µM [2, 22] of 99.7%. The viability at 2.19 µM [2, 23] was 88.8%, the viability at 1 µM [2, 24] was 97.9% and the viability at 0.468 µM ([2]; IMR-90, Control, log (dose) [M] -6.33, read-out: % Cell Survival) was 91.9%. It also gave a viability at 0.219 µM [2, 25] of 111%, a viability at 0.1 µM [2, 26] of 92.2% and a viability at 0.04677 µM [2, 27] of 101%. The viability at 0.0219 µM ([2]; IMR-90, Control, log (dose) [M] -7.66, read-out: % Cell Survival) was 94.6%, the viability at 0.01 µM [2, 28] was 95.3% and the viability at 10 µM [3] was 77.3%. It also gave a viability at 4.68 µM [3] of 86.4%, a viability at 2.19 µM [3] of 85.2% and a viability at 1 µM [3] of 92.7%. It also gave a viability at 0.468 µM [3] of 94.2%, a viability at 0.219 µM [3] of 87.5% and a viability at 0.1 µM [3] of 100%. It also gave a viability at 0.0468 µM [3] of 95.4%, a viability at 0.0219 µM [3] of 104% and a viability at 0.01 µM [3] of 101%.
